Measured values as given in ChEMBL document CHEMBL1201862, “PubChem BioAssay data set” (2004).
The source made the active and inactive calls.

Experiments:
[1] = target: T1, Oxysterols receptor LXR-beta (Homo sapiens, UniProt P55055); format: functional, cell-based;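 further: agonist activity at LXR measured by a cell-based luminescence readout across a dose range, run as a counterscreen for daf-12 agonists; HEK293 cells with Gal4-LXR fusion and GAL4-driven luciferase reporter; potency for activation of Gal4-LXR reporter so compounds are agonists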
T1 sequence (P55055 whole entry): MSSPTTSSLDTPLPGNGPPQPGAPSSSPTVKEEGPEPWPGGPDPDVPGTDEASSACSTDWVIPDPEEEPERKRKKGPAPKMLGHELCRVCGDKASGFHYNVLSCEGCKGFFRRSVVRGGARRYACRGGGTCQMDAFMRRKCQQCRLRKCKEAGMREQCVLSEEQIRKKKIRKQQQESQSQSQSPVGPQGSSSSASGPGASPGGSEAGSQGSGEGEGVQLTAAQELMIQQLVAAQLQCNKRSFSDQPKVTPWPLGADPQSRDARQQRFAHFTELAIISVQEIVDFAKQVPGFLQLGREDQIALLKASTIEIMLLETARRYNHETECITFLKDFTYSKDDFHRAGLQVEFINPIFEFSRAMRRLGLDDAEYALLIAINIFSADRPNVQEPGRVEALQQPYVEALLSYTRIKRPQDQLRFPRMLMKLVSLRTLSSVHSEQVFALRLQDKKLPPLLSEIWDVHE

[2] = inhibition of ADAM10 peptide cleavage – biochemical, FRET peptide substrate, recombinant human ADAM10, selectivity assay for ADAM17 exosite inhibitor project, dose response (AID 743259);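 further: ADAM10 enzyme cleaving a FRET peptide substrate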
[3] = target: Disintegrin and metalloproteinase domain-containing protein 17 (Homo sapiens, UniProt P78536); assay: exosite inhibitors of ADAM17, dose response, biochemical (AID 743260)
Disintegrin and metalloproteinase domain-containing protein 17, sequence (P78536 whole entry, the tested form may be a part): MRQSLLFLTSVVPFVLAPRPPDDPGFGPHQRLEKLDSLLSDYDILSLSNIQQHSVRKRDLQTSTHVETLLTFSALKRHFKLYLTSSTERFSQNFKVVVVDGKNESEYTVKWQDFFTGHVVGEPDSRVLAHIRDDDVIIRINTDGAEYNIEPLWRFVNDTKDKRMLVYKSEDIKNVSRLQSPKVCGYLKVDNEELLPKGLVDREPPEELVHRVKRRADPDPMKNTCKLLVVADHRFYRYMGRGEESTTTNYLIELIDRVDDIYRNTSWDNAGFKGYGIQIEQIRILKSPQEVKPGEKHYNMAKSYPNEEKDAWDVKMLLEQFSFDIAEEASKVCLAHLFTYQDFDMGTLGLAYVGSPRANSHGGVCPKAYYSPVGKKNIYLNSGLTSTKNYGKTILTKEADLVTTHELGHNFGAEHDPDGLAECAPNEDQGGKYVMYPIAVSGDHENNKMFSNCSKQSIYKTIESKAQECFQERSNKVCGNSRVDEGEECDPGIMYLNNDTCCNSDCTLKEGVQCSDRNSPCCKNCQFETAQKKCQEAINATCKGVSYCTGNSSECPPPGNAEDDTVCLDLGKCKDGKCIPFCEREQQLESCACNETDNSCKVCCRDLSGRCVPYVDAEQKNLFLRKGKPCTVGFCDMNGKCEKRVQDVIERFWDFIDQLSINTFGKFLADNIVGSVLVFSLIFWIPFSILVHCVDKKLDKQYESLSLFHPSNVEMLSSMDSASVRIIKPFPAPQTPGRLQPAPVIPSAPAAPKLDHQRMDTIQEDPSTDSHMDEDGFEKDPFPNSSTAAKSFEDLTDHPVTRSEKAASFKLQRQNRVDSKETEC

[4] = Luminescence Cell-Based Dose Response to Identify Activators of Luciferase Translation or Activity in H4-C Neuroglioblastoma Cells. [Related pubchem assays: 1829 (Project Summary), 1814 (Primary HTS)]; format: functional
[5] = Luminescence Cell-Based Dose Confirmation to Identify Activators of 5'UTR Stem-Loop Driven Alpha-Synuclein mRNA Translation in H4 Neuroglioblastoma Cells. [Related pubchem assays: 1829 (Project Summary), 1814 (Primary HTS)]; format: functional
[6] = Luminescence Cell-Based Dose Response to Identify Activators of 5'UTR Stem-Loop Driven Prion Protein mRNA Translation in H4-C Neuroglioblastoma Cells. [Related pubchem assays: 1829 (Project Summary), 1814 (Primary HTS)]; format: functional
[7] = Luminescence Cell-Based Dose Response HTS to Identify Activators of Luciferase Translation or Activity in H4 […] Cells. [Related pubchem assays: 1829 (Project Summary), 1814 (Primary HTS)]; format: functional
[8] = general mammalian cell viability loss – activator set, cherry-pick, cytotoxicity control for miR-122 modulator project, dose response (AID 720690); format: functional, cell-based;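 further: HEK293T human cells scored for general mammalian cytotoxicity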
[9] = viability of uninfected HEp-2 cells – cell-based, HTS, cytotoxicity control for RSV inhibitor project, dose response (AID 2410); format: functional; conditions: human respiratory syncytial virus
cells [10] = format: functional, cell-based
cells [11] = format: functional, cell-based; remark: listed apart in the source
Nonstructural protein 1 = Nonstructural protein 1 (Influenza A virus, UniProt Q194T2); format: functional, Influenza A virus (A/California/07/2009(H1N1))
Nonstructural protein 1, sequence (Q194T2 whole entry): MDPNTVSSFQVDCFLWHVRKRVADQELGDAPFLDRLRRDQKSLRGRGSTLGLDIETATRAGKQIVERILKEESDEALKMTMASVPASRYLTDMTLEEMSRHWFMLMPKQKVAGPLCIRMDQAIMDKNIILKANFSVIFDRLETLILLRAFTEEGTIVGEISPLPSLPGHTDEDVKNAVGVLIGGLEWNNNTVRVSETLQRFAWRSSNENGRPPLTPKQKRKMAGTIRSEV

Genome polyprotein = Genome polyprotein (dengue virus type 2, UniProt P29990); assay: flavivirus cap methylation enzyme inhibition – biochemical, confirmation dose response, primary screen (AID 588689); format: functional
Genome polyprotein, sequence (P29990 2492-3391 limits assumed): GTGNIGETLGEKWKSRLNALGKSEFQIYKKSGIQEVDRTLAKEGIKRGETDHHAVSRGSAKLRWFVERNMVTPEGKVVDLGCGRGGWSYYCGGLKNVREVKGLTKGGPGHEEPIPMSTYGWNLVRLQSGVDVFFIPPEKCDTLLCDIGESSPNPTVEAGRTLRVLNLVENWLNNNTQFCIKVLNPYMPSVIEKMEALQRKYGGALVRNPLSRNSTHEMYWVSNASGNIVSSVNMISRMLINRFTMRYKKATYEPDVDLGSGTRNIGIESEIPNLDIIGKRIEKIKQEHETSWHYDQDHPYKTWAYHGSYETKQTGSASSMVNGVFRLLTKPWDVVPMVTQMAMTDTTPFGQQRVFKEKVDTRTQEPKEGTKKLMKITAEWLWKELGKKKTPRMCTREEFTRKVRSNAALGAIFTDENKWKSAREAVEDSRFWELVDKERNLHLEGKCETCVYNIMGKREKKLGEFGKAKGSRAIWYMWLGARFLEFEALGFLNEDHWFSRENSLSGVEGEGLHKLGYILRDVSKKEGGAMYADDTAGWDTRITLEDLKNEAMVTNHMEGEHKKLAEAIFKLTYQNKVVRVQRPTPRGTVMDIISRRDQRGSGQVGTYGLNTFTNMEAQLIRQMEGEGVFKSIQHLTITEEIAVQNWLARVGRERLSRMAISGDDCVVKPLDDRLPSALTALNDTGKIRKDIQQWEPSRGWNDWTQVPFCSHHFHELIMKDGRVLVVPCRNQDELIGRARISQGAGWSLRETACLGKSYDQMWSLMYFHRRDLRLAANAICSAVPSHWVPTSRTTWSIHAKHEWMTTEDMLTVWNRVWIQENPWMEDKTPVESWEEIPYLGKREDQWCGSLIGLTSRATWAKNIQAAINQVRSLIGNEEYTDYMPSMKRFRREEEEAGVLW

[12] = target: T2, RNA-binding protein pos-1 (Caenorhabditis elegans, UniProt G5EF15); assay: disruptors of C. elegans POS-1 RNA interaction – biochemical, fluorescence polarization, dose response (AID 1964);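 further: purified POS-1 fused to maltose binding protein made in E. coli; potency of compounds blocking POS-1 binding to fluorescent RNA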
T2 sequence (G5EF15 whole entry): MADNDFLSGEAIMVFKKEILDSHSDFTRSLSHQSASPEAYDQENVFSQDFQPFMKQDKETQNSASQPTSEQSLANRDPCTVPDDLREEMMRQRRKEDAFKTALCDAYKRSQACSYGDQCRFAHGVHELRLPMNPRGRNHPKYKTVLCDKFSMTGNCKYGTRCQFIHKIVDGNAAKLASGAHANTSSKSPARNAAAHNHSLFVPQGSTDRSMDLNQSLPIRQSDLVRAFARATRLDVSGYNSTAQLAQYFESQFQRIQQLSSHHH

Caspase-6 = target: T3, Caspase-6 (Homo sapiens, UniProt P55212); assay: inhibition of CASP6 peptide cleavage – biochemical, VEID-R110 fluorescence, cherry-pick, dose response (AID 720632)
T3 sequence (P55212 whole entry): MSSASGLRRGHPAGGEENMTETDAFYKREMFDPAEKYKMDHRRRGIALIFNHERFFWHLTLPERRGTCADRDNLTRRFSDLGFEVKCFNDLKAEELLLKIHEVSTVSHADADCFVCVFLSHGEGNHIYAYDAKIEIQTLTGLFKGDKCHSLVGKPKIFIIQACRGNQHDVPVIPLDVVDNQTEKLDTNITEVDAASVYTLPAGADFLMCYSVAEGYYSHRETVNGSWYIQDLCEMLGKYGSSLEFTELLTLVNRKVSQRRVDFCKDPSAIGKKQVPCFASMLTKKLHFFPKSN

Streptococcus = assay: GAS UMAA2166 growth inhibition – luminescence, BacTiterGlo, counter-screen for streptokinase expression inhibitor project, dose response (AID 1915); format: functional, organism-based; conditions: Streptococcus;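 further: potency for reduction of bacterial viability or growth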
[13] = tested on: Streptococcus sp. 'group A'; assay: Streptococcus pyogenes SK(-)GAS viability under kanamycin – luminescence, BacTiterGlo, confirmation, counter-screen for streptokinase expression inhibitor project, dose response (AID 1900); format: functional, organism-based; conditions: Streptococcus sp. 'group A'
[14] = target: T4, Long-chain-fatty-acid--AMP ligase FadD28 (Mycobacterium tuberculosis, UniProt P9WQ59); assay: Fluorescence polarization aasay to screen for inhibitors that compete for the binding of FadD28 to a bisubstrate Measured in Biochemical System Using Plate Reader - 2147-01_Inhibitor_Dose_CherryPick_Activity.; format: functional, Mycobacterium tuberculosis H37Rv
T4 sequence (P9WQ59 whole entry): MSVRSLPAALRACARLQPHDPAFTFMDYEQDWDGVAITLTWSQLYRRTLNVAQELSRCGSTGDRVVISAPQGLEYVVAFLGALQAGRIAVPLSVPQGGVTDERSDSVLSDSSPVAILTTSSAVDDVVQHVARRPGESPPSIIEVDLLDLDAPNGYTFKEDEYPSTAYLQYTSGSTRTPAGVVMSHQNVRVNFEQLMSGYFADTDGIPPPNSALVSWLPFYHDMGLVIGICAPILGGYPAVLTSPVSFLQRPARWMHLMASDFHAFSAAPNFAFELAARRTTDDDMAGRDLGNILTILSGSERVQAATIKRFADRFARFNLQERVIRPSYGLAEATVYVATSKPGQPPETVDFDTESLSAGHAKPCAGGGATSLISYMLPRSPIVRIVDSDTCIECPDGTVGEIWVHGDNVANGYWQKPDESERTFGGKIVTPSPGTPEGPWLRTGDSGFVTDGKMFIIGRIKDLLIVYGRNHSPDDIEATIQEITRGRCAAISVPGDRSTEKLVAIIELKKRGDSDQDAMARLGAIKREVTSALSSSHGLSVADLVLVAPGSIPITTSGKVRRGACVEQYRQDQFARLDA

Streptokinase A = target: T5, Streptokinase A (Streptococcus pyogenes serotype M1, UniProt P10520); assay: viability-normalized secreted streptokinase activity reduction – plasminogen activation absorbance, OD405, dose response (AID 1914); format: functional, Streptococcus pyogenes M1 GAS;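 further: secreted streptokinase activity via plasminogen activation per viability signal from cell pellet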
T5 sequence (P10520 whole entry): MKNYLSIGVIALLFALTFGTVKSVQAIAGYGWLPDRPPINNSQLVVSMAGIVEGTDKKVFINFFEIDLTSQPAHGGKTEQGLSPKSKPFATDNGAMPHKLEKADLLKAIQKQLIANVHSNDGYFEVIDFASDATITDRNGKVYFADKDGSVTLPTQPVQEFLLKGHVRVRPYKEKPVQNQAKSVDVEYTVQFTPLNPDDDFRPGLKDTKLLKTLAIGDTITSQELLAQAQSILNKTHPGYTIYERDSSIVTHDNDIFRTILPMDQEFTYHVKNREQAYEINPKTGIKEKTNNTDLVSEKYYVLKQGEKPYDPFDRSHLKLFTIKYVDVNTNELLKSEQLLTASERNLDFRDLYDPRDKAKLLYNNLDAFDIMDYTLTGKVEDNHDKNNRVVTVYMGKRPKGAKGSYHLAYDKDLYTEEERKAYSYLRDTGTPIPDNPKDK

[15] = target: Luciferin 4-monooxygenase (Photinus pyralis, UniProt P08659); assay: inhibition of purified Photinus pyralis luciferase – biochemical, luminescence, dose response (AID 1891)
Luciferin 4-monooxygenase, sequence (P08659 whole entry): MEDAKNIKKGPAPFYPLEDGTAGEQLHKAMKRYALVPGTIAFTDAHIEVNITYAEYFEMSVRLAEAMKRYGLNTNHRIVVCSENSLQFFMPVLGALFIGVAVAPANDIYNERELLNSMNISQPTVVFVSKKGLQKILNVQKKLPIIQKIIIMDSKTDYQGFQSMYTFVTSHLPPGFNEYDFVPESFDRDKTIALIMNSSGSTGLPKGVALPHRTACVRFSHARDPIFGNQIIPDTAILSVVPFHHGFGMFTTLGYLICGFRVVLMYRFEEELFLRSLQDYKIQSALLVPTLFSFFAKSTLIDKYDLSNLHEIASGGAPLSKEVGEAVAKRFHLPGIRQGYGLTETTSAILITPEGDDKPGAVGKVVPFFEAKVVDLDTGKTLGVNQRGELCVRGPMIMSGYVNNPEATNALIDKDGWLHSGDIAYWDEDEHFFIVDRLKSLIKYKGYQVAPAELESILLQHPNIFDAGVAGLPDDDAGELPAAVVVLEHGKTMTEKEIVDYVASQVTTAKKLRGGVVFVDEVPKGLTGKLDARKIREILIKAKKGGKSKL

[16] = Luminescence Cell-Based Dose Confirmation HTS to Identify Inhibitors of Platelet Dense Granule Release. [Related pubchem assays: 1663 (Primary HTS), 1678 (Summary of Project)]; format: functional
[17] = HGIII-sPLA2 enzyme inhibition potency – biochemical, QFRET, IC50, dose response (AID 743457);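 further: green fluorescence rise as the enzyme cleaves BODIPY PC-A2 in liposomes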
[18] = alpha-synuclein stem-loop luciferase translation blockers – H4 neuroglioma cells, luminescence, confirmation (AID 1988); format: functional, cell-based
[19] = Vero E6 cell cytotoxicity, dose response, cytotoxicity control for non-replicating M. tuberculosis project, secondary assay (AID 492998); format: functional, VeroE6; conditions: Vero C1008
[20] = A549 cell cytotoxicity, dose response, cytotoxicity control, plate reader, cherry-pick, antagonist series (AID 743412); format: functional, cell-based
INS1 = assay: INS-1E survival protection against cytokine death – cell-based, luminescence, retest, dose response (AID 449756); format: functional; conditions: Rattus norvegicus;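 further: cell death triggered by IL-1 beta plus TNF-alpha plus IFN-gamma mixture; protective hits raise ATP signal compared with cytokine alone wells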
[21] = toxicity toward HepG2 liver cells – cell-based, plate reader, cherry-pick, antagonist series, cytotoxicity control, dose response (AID 743416); format: functional
[22] = HepG2 cell cytotoxicity, dose response, cytotoxicity control for non-replicating M. tuberculosis project (AID 489018); format: functional; conditions: Mycobacterium tuberculosis
cells [23] = format: functional
[24] = blockers of bursicon-stimulated LGR2 cAMP reporter – cell-based, HEK293, CRE-luciferase reporter, cherry pick, set 2, dose response (AID 743343); format: functional;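 further: transfected cells were stimulated with diluted bursicon conditioned medium after compound addition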
[25] = Luminescence Cell-Based Dose Response HTS to Identify Inhibitors of 5'UTR Stem-Loop Driven Prion Protein mRNA Translation in H4 Neuroglioblastoma Cells. [Related pubchem assays: 1827 (Project Summary), 1813 (Primary HTS)]; format: functional
[26] = fluconazole-exposed Candida albicans growth modulators – fluorescence, retest, confirmation (AID 2467); format: functional, cell-based
[27] = NIH-3T3 fibroblast cytotoxicity, dose response, cytotoxicity control, cell-based, fluorescence, Alamar Blue, secondary assay (AID 2327); format: functional;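 further: NIH-3T3 mouse fibroblasts cultured with fluconazole at 8 µg/mL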
[28] = THP-1 cell cytotoxicity, dose response, cytotoxicity control for non-replicating M. tuberculosis project (AID 489025); format: functional
[29] = luciferase reporter signal suppression in cells – H4 neuroglioma cells, luminescence, dose response (AID 1990); format: functional, cell-based

Cc1cccc(C(=N)NOC(=O)c2cccs2)c1
EC50 [1]: > 67.5 µM (inactive)

O=c1c2ccccc2cnn1-c1ccc2ccccc2c1
EC50 [1]: > 67.5 µM (inactive)

Cc1ccc(NC(=O)C(OC(=O)c2cc(C)oc2C)c2ccccc2)cc1 (centres undefined)
IC50 [2]: 24.5 µM (inactive)
IC50 [3]: > 69.5 µM (inactive)

CCOC(=O)c1cnc(SCc2ccccc2)nc1N
EC50 [4]: 0.278 µM (active)
EC50 [5]: 0.23 µM (active)
EC50 [6]: 0.342 µM (active)
EC50 [7]: < 0.1 µM (active)
EC50 [1]: > 67.5 µM (inactive)

COc1cc(NC(=O)C/C(C)=N/NC(=O)Cc2ccccc2)c(OC)cc1Cl
IC50 [2]: > 69.5 µM (inactive)
IC50 [3]: > 69.5 µM (inactive)

COc1ccc2c(c1)C(C)=CC(C)(C)N2C(=O)CNCc1ccc2c(c1)OCO2
AC50 [8]: 40.4 µM (active)
CC50 [9]: > 50 µM (active)

CC(=O)c1cccc(OCC(O)CNCCc2ccc(Cl)cc2)c1 (centres undefined)
IC50 (cells [10]): > 29.9 µM (inactive)
EC50 (cells [11]): > 29.9 µM (inactive)

Oc1ccc(/C=N/Nc2ccc(Cl)nn2)c(O)c1O
IC50 (Nonstructural protein 1): 2.08 µM (active)
IC50 (Genome polyprotein): 16.4 µM (active)
EC50 [12]: 50 µM (inconclusive)
AC50 (Caspase-6): 1.1 µM (active)

CN(c1ccc(OCC(=O)Nc2cc(Cl)ccc2C(=O)O)cc1)S(=O)(=O)c1ccc(F)cc1
AC50 (Caspase-6): 27.2 µM (active)

CCc1c(O)n(C2CCCCC2)c(SCC(=O)Nc2nc3ccccc3s2)nc1=O
EC50 (Streptococcus): 122 µM (active)
EC50 [13]: 11.8 µM (active)
AC50 [14]: 29 µM (active)
EC50 (Streptokinase A): 17.1 µM (active)

CCC(NCCc1ccccc1)=C1C(=O)NC(=O)NC1=O
IC50 (cells [10]): > 29.9 µM (inactive)
EC50 (cells [11]): > 29.9 µM (inactive)
EC50 [15]: > 112 µM (not active)
EC50 [16]: 14.5 µM (active)

COC(=O)C1=C(c2ccccc2OCc2ccccc2)C[C@@H]2CC[C@H]1N2C(=O)NCc1ccc(Cl)cc1
IC50 [2]: > 7.72 µM (active)
IC50 [3]: > 69.5 µM (inactive)

O=C(NNC(=S)NC1CCCCC1)c1ccccc1Cl
IC50 [17]: > 122 µM (inactive)

CC(C)c1ccc2c(c1)C(N1CCNCC1)Cc1ccc(F)cc1S2 (centres undefined)
EC50 [18]: 11.6 µM (active)
CC50 [19]: 12.3 µM (active)
AC50 [20]: 6.71 µM (active)
AC50 (INS1): 6.71 µM (active)
AC50 [21]: 7.87 µM (active)
CC50 [22]: 18.1 µM (active)
IC50 (cells [23]): 14.2 µM (active)
AC50 [24]: 38.2 µM (active)
EC50 [25]: 25.7 µM (active)
EC50 [26]: > 38 µM (not active)
EC50 [27]: > 150 µM (inactive)
CC50 [28]: 16.3 µM (active)
EC50 [29]: > 120 µM (not active)
